According to publication PMC9851200, “Multiparameter phenotypic screening for endogenous TFEB and TFE3 translocation identifies novel chemical series modulating lysosome function” (Autophagy, 2022):

Experiments:
Assay type in all cases: binding
[1] = target: kinases (KINOMEscan panel) (Homo sapiens, UniProt O75716); conditions: kinase STK16; NEW KINOMEscan
[2] = target: kinases (KINOMEscan panel) (Homo sapiens, UniProt Q9H4B4); conditions: kinase PLK3; NEW KINOMEscan
[3] = target: T1, kinases (KINOMEscan panel) (Homo sapiens, UniProt Q9Y616); conditions: IRAK3; NEW KINOMEscan
T1 sequence (Q9Y616 1-596): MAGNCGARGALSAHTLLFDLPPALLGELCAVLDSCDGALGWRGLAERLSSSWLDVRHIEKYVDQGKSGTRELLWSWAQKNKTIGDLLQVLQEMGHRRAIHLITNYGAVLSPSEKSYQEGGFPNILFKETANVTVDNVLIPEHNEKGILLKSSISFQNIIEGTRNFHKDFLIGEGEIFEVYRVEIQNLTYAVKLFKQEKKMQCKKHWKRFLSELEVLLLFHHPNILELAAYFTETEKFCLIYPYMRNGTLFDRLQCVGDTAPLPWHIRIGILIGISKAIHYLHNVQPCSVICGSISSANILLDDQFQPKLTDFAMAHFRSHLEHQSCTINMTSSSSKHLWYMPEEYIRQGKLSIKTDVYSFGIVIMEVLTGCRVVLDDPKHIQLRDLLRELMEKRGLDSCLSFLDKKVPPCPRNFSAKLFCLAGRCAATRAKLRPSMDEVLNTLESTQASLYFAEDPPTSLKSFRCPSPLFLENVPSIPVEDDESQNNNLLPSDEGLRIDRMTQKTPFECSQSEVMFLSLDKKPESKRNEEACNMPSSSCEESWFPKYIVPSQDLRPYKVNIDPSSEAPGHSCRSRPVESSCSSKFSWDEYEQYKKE

[4] = target: T2, kinases (KINOMEscan panel) (Homo sapiens, UniProt O76039); conditions: kinase CDKL5; NEW KINOMEscan
T2 sequence (O76039 1-960): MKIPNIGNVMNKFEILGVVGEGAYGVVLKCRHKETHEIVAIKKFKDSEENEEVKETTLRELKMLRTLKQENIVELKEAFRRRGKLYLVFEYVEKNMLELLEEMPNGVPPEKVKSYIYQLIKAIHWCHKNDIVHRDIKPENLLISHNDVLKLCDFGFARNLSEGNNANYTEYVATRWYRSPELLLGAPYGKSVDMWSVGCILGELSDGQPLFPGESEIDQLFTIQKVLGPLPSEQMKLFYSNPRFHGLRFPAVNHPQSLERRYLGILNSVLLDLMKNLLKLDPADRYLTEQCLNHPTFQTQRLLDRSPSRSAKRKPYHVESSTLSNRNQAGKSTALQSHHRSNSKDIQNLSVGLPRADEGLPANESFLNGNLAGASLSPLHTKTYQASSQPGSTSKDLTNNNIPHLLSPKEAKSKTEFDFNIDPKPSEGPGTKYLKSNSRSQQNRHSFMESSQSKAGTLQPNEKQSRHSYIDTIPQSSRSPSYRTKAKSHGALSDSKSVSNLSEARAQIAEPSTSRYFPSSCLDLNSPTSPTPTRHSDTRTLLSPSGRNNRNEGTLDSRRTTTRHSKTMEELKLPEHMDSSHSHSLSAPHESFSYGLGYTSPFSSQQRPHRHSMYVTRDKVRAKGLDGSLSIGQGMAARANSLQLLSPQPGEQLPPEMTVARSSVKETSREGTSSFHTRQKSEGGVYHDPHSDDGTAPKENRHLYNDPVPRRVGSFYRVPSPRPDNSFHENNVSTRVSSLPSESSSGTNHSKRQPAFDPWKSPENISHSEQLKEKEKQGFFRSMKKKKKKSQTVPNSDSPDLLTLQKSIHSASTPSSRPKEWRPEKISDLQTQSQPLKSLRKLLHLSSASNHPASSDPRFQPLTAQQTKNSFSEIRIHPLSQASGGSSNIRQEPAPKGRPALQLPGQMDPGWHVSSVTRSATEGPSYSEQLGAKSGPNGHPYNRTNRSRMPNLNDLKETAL

[5] = target: kinases (KINOMEscan panel) (Homo sapiens, UniProt Q5S007, G2019S); conditions: NEW KINOMEscan
Chain of kinases (KINOMEscan panel) (Homo sapiens, UniProt Q5S007, G2019S) (Q5S007 whole entry G2019S): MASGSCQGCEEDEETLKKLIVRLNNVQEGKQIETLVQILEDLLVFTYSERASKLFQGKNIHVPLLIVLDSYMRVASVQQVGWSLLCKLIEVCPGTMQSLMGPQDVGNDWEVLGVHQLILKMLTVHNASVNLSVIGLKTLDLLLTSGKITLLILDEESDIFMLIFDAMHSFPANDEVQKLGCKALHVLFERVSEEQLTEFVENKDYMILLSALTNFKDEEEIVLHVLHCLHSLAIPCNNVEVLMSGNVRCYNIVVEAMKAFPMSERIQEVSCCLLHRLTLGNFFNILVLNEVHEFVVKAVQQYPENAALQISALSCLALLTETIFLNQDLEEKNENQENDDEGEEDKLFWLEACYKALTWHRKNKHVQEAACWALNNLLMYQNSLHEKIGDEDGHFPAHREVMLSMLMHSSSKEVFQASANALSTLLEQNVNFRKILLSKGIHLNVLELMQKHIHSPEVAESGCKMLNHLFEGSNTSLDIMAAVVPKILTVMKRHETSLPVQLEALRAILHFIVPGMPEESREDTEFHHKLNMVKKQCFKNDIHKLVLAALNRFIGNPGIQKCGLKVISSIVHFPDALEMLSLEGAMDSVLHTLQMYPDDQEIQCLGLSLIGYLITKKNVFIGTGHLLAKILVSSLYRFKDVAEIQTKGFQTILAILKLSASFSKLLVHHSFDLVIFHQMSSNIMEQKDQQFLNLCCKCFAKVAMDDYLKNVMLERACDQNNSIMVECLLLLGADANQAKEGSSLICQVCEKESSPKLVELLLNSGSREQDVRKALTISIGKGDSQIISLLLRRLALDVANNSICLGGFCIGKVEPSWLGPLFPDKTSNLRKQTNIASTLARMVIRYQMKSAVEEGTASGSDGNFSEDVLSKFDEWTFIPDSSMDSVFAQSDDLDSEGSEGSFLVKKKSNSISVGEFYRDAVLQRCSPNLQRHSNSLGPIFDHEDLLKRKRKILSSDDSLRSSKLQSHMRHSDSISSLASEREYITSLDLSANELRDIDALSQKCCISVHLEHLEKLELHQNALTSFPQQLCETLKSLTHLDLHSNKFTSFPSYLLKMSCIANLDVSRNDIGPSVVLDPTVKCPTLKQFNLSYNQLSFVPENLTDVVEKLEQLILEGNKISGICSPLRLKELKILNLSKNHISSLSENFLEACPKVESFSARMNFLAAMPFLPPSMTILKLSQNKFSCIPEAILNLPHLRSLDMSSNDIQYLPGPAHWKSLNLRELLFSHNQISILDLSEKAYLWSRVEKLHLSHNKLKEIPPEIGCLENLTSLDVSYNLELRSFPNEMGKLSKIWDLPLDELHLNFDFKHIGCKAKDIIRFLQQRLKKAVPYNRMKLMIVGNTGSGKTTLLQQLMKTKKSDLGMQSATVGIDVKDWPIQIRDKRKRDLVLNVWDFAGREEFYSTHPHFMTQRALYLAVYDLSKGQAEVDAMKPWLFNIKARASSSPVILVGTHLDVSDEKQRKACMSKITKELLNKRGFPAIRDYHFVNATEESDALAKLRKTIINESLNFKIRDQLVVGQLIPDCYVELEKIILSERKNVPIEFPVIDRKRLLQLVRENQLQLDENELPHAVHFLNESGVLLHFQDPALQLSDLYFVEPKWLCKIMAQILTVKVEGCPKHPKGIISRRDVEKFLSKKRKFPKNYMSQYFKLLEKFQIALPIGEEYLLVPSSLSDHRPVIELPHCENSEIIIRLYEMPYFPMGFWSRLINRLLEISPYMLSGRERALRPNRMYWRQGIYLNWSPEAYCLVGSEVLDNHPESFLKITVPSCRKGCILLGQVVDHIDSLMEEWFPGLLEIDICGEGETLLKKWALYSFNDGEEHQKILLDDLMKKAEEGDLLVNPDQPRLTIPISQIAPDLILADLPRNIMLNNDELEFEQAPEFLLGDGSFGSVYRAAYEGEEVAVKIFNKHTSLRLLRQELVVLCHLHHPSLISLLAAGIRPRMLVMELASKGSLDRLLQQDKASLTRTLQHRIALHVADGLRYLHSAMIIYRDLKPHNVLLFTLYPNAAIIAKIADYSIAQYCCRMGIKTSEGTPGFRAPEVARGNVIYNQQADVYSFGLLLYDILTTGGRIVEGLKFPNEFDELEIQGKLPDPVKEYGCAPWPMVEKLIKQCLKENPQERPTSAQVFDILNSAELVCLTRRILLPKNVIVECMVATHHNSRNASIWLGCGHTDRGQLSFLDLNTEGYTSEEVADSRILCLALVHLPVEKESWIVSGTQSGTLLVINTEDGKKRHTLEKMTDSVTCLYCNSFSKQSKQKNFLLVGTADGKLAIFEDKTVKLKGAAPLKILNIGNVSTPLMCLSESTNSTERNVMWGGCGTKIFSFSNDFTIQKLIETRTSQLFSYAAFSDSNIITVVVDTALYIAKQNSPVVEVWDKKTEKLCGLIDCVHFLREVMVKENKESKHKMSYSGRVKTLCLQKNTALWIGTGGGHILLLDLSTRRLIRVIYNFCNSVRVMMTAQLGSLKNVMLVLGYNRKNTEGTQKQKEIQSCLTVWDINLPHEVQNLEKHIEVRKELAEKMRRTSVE

[6] = target: T3, kinases (KINOMEscan panel) (Homo sapiens, UniProt P43403); conditions: NEW KINOMEscan
T3 sequence (P43403 1-619): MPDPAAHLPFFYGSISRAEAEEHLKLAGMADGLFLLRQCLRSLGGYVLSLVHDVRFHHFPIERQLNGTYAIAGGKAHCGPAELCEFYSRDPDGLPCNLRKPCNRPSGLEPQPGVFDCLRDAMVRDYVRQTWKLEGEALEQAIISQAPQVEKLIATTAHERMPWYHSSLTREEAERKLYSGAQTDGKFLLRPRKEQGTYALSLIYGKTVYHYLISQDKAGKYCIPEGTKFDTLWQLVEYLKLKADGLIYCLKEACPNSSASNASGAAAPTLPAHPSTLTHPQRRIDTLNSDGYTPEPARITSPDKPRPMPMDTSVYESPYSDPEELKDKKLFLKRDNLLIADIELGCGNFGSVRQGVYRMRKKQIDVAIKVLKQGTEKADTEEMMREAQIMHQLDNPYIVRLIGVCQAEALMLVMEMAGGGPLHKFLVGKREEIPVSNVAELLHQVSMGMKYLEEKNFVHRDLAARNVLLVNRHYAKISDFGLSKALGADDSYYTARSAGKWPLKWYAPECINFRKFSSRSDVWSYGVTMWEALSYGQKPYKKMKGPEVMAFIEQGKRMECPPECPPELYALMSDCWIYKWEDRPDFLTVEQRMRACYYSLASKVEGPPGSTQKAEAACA

[7] = target: T4, kinases (KINOMEscan panel) (Homo sapiens, UniProt P51955); conditions: kinase NEK2; NEW KINOMEscan
T4 sequence (P51955 1-445): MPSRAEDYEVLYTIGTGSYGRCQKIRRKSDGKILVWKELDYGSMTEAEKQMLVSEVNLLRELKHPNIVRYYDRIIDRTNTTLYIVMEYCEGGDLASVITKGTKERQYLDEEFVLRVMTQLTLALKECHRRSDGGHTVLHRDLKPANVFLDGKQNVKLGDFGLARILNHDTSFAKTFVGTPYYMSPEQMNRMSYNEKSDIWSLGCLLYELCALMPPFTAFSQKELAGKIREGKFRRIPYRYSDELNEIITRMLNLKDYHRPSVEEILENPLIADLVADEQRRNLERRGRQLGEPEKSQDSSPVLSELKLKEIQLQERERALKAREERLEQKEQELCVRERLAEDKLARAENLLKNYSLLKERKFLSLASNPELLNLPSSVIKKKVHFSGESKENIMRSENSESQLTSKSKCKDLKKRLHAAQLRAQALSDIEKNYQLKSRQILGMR

Chain of kinases (KINOMEscan panel) (Homo sapiens, UniProt O75716) (O75716 whole entry): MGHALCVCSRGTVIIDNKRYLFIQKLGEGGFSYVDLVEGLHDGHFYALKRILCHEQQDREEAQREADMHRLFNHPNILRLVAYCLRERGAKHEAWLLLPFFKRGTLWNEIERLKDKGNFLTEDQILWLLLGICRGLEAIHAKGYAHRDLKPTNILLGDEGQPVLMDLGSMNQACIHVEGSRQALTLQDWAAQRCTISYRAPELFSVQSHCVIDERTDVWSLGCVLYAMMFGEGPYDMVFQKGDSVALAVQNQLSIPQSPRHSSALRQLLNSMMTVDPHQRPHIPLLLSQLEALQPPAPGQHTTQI
Chain of kinases (KINOMEscan panel) (Homo sapiens, UniProt Q9H4B4) (Q9H4B4 whole entry): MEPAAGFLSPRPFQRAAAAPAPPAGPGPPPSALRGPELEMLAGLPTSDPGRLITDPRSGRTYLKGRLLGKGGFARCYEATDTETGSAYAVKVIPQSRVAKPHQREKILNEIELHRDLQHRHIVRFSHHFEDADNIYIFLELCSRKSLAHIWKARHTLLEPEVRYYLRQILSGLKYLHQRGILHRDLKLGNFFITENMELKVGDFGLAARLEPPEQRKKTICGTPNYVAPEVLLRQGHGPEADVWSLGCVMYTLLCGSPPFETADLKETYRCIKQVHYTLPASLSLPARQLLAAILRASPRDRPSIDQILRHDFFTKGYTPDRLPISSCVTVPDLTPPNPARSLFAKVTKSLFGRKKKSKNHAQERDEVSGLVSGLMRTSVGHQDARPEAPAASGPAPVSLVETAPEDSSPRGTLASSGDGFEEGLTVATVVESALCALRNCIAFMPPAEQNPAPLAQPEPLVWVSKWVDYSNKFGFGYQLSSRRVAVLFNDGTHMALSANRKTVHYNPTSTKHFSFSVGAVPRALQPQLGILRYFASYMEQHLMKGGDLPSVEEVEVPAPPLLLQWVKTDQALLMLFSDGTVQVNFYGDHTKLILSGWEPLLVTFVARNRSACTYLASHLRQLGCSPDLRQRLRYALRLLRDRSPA

SMILES | KINOMEscan STK16 [1] | KINOMEscan PLK3 [2] | KINOMEscan IRAK3 [3] | KINOMEscan CDKL5 [4] | KINOMEscan LRRK2(G2019S) [5] | KINOMEscan ZAP70 [6] | KINOMEscan NEK2 [7]
Cc1cccc(-c2nc(Nc3ccc4nn(C)cc4c3)c3ccccc3n2)n1 [NK167] | 19 | 16 | 0 | 0 | 39 | 14 | 0
Cc1cccc(-c2nc(N(C)c3ccc4ncsc4c3)c3ccccc3n2)n1 [NK-161] | 15 | 13 | 7 | 3 | 31 | 20 | 1
